# Reference: publication PMC3267017, “Design, synthesis and in vitro evaluation of novel bivalent S-adenosylmethionine analogues” (Bioorganic & Medicinal Chemistry Letters, 2012)
# Counter-ions that a name gives are not always drawn. Like-named read-outs stand apart in the source and are kept apart here.
# Molecular target: MetJ dimer–DNA complex (F-metC) (Escherichia coli, UniProt P0A8U6)
# Assay: Fluorescence anisotropy assay: MetJ titrated into F-metC DNA and ligand, MetJ dimer–DNA complex formation
# Assay type: binding
# Settings: for EC50: F-metC 10 nM, read-out: EC50, concentration of MetJ monomer required to promote half-maximal formation of its complex with the F-metC DNA; for Fold-improvement over monovalent control 11: unquaternised bivalent ligand 1 mM vs 11 at 2 mM; for Fold-improvement over monovalent control 4: ligands 2 mM
# Excerpt: A fluorescence anisotropy-based binding assay was used to compare the relative ability of SAM analogues to promote MetJ dimer–DNA complex formation. Since SAM has low affinity for MetJ in the absence of DNA,[8,13] measurements were made in the presence of the DNA fragment F-metC, a fluorescently-labeled analogue of the shortest naturally occurring operator sequence, metC.[14] Titration of MetJ into a solution containing fixed concentrations of F-metC and ligand allows the change in anisotropy related to ternary complex formation to be measured (Fig. 5).
# Figure 5 Cartoon illustrating the fluorescence anisotropy assay. The SAM molecules promote the formation of a SAM–F-metC–protein complex, with two MetJ dimers bound to the 18 base-pair DNA duplex.
# The half-maximal concentration of MetJ, EC50, required to promote complex formation was determined for each ligand. […] The monovalent ligands 11 and 12 (2 mM) and the bivalent ligands 9 and 10 (1 mM) all promoted the formation of the MetJ–DNA complex (Table 1). […] The unquaternised bivalent ligands 9a–e (1 mM) promoted complex formation up to about threefold more effectively than the corresponding monovalent analogue 11. Similarly, the quaternised bivalent ligands 10a and 10b promoted, respectively, complex formation 2.4- and 3.6-fold more effectively than the quaternised monovalent analogue 12.
# Analysis of novel SAM analogues binding to MetJ in the presence of operator DNA was carried out using fluorescence anisotropy. Fluorescence anisotropy experiments were performed on a Spex Fluorolog Tau spectrofluorometer (HORIBA Jobin Yvon) controlled by Datamax software. The excitation and emission wavelengths were set to 488 nm and 517 nm respectively. Slit widths were set to 5 nm and all experiments were carried out at 19 °C. The detector integration time was 5 seconds and three readings were taken of each sample to obtain an average anisotropy. Free anisotropy values were 0.051-0.060. Increase in fluorescence anisotropy was observed upon titration of MetJ into a solution of F-metC (10 nM) with and without ligand ([…]) in TK buffer pH 7.6 (50 mM Trizma hydrochloride pH 7.6, 100 mM KCl) with a total starting volume of 200 µL. […] The final DMSO concentration was 2% or less. After each addition, the sample was mixed with a pipette and left to equilibrate for five minutes before the fluorescence anisotropy readings were acquired. The intensity of linear and perpendicular light, compared to the excitation light is measured experimentally and the anisotropy was calculated using the following equation:‖
# The data was fitted to a sigmoidal growth logistic model using the following equation: […]
# Where A1 refers to the initial value, A2 refers to the final value, x0 refers to the centre and p is a value relating to the slope of the transition. Errors refer the standard deviation of three titration repeats. An arbitrary weighting function with the following equation was employed: […]
# [1] = bivalent ligand 1 mM, DMSO 2%, average of three titrations
# [2] = unquaternised ligands 2 mM, average of three titrations
# [3] = quaternised ligands 2 mM, average of three titrations
# [4] = monovalent ligand 2 mM, DMSO 2%, average of three titrations
# Chain of MetJ dimer–DNA complex (F-metC) (P0A8U6 2-105, one chain of several): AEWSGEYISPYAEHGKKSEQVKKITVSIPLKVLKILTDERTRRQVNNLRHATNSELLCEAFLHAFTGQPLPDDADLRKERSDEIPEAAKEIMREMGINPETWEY
smiles,measurement,setting,value
"CN(CC[C@H](N)C(=O)NCc1ccc(CNC(=O)[C@@H](N)CCN(C)C[C@H]2O[C@@H](n3cnc4c(N)ncnc43)[C@H](O)[C@@H]2O)cc1)C[C@H]1O[C@@H](n2cnc3c(N)ncnc32)[C@H](O)[C@@H]1O [Compound 9a, N,N′-(1,4-Phenylenebismethylene)bis{(2′S)-2′-amino-4′-[5′′-deoxy-5′′-(methylamino)-adenosyl]butanamide}]",EC50,[1],61 ± 3 nM
same,Fold-improvement over monovalent control 11,,2.0-fold
"CN(CCCC(=O)NCCCCn1nnc2c1CCCCCC2OCCNC(=O)CCCN(C)C[C@H]1O[C@@H](n2cnc3c(N)ncnc32)[C@H](O)[C@@H]1O)C[C@H]1O[C@@H](n2cnc3c(N)ncnc32)[C@H](O)[C@@H]1O (stereo partly drawn) [Compound 15b, 4-((Adenosyl)(methyl)amino)-N-(2-(1-(4-(4-((adenosyl) (methyl)amino)butanamido)butyl)-4,5,6,7,8,9-hexahydro-1H-cycloocta[d][1,2,3]triazol-4-yloxy)ethyl)butanamide and 4-(-((adenosyl)(methyl)amino)-N-(2-(1-(4-(4-(-((adenosyl)(methyl)amino)butanamido)butyl)-4,5,6,7,8,9-hexahydro-1H-cycloocta[d][1,2,3]triazol-9-yloxy)ethyl)butanamide]",EC50,[2],76 ± 2 nM
"C[N+](C)(CCCC(=O)NCCCCn1nnc2c1CCCCCC2OCCNC(=O)CCC[N+](C)(C)C[C@H]1O[C@@H](n2cnc3c(N)ncnc32)[C@H](O)[C@@H]1O)C[C@H]1O[C@@H](n2cnc3c(N)ncnc32)[C@H](O)[C@@H]1O.[I-].[I-] (stereo partly drawn) [Compound 16b, 4-((Adenosyl)(dimethyl)amino)-N-(2-(1-(4-(4-((adenosyl) (dimethyl)amino)butanamido)butyl)-4,5,6,7,8,9-hexahydro-1H-cycloocta[d][1,2,3]triazol-4-yloxy)ethyl)butanamide diiodide and 4-(-((adenosyl)(dimethyl)amino)-N-(2-(1-(4-(4-(-((adenosyl)(dimethyl)amino)butanamido)butyl)-4,5,6,7,8,9-hexahydro-1H-cycloocta[d][1,2,3]triazol-9-yloxy)ethyl)butanamidediiodide]",Fold-improvement over monovalent control 5,quaternised ligands 2 mM,3.6-fold
same,EC50,[3],42 ± 3 nM
"CN(CC[C@H](N)C(=O)NCc1cccc(CNC(=O)[C@@H](N)CCN(C)C[C@H]2O[C@@H](n3cnc4c(N)ncnc43)[C@H](O)[C@@H]2O)c1)C[C@H]1O[C@@H](n2cnc3c(N)ncnc32)[C@H](O)[C@@H]1O [Compound 9b, N,N′-(1,3-Phenylenebismethylene)bis{(2′S)-2′-amino-4′-[5′′-deoxy-5′′-(methylamino)-adenosyl]butanamide}]",EC50,[1],37 ± 2 nM
same,Fold-improvement over monovalent control 11,,3.2-fold
"CN(CCCC(=O)NCCCCCCNC(=O)CCCN(C)C[C@H]1O[C@@H](n2cnc3c(N)ncnc32)[C@H](O)[C@@H]1O)C[C@H]1O[C@@H](n2cnc3c(N)ncnc32)[C@H](O)[C@@H]1O [Compound 18d, N,N′-Di-[5′-deoxy-5′-N-methyl-N′-(4-butyryl)-adenosine]-1,6-diaminohexane]",EC50,[2],47 ± 1 nM
"CCCNC(=O)CCC[N+](C)(C)C[C@H]1O[C@@H](n2cnc3c(N)ncnc32)[C@H](O)[C@@H]1O [Compound 5, reference compound]",EC50,[3],150 ± 10 nM
"CN(CC[C@H](N)C(=O)NCc1ccccc1)C[C@H]1O[C@@H](n2cnc3c(N)ncnc32)[C@H](O)[C@@H]1O [Compound 11, 5′-[{(3′′S)-4′′-Benzylamino-3′′-amino-4′′-oxobutyl}methylamino]-5′-deoxyadenosine]",EC50,[4],120 ± 10 nM
"C[S+](CC[C@H](N)C(=O)[O-])C[C@H]1O[C@@H](n2cnc3c(N)ncnc32)[C@H](O)[C@@H]1O (stereo partly drawn) [SAM, 1, S-Adenosylmethionine]",EC50,"SAM, ligand concentration not given, DMSO 2%",17.3 ± 0.3 nM
"CN(CC[C@H](N)C(=O)NCc1ccccc1-c1ccccc1CNC(=O)[C@@H](N)CCN(C)C[C@H]1O[C@@H](n2cnc3c(N)ncnc32)[C@H](O)[C@@H]1O)C[C@H]1O[C@@H](n2cnc3c(N)ncnc32)[C@H](O)[C@@H]1O [Compound 9c, N,N′-(Biphenyl-2,2′-diylybismethylene)bis{(2′′S)-2′′-amino-4′′-[5′′′-deoxy-5′′′-(methylamino)-adenosyl]butanamide}]",EC50,[1],39 ± 1 nM
same,Fold-improvement over monovalent control 11,,3.1-fold
"CN(CC[C@H](N)C(=O)NCC#CC#CCNC(=O)[C@@H](N)CCN(C)C[C@H]1O[C@@H](n2cnc3c(N)ncnc32)[C@H](O)[C@@H]1O)C[C@H]1O[C@@H](n2cnc3c(N)ncnc32)[C@H](O)[C@@H]1O [Compound 9e, N,N′-(Hexa-2,4-diyne-1,6-diyl)bis{(2′S)-2′-amino-4′-[5′′-deoxy-5′′-(methylamino)-adenosyl]butanamide}]",EC50,[1],111 ± 5 nM
same,Fold-improvement over monovalent control 11,,1.1-fold
"CN(CCCC(=O)NCCCNC(=O)CCCN(C)C[C@H]1O[C@@H](n2cnc3c(N)ncnc32)[C@H](O)[C@@H]1O)C[C@H]1O[C@@H](n2cnc3c(N)ncnc32)[C@H](O)[C@@H]1O [Compound 18b, N,N′-Di-[5′-deoxy-5′-N-methyl-N′-(4-butyryl)]-1,3-diaminopropane]",Fold-improvement over monovalent control 4,,3.1-fold
same,EC50,[2],320 ± 40 nM
"CN(CC[C@H](N)C(=O)NCc1cccc(-c2cccc(CNC(=O)[C@@H](N)CCN(C)C[C@H]3O[C@@H](n4cnc5c(N)ncnc54)[C@H](O)[C@@H]3O)c2)c1)C[C@H]1O[C@@H](n2cnc3c(N)ncnc32)[C@H](O)[C@@H]1O [Compound 9d, N,N′-(Biphenyl-3,3′-diylybismethylene)bis{(2′′S)-2′′-amino-4′′-[5′′′-deoxy-5′′′-(methylamino)-adenosyl]butanamide}]",EC50,[1],75 ± 4 nM
same,Fold-improvement over monovalent control 11,,1.6-fold
"C[N+](C)(CC[C@H](N)C(=O)NCc1ccccc1)C[C@H]1O[C@@H](n2cnc3c(N)ncnc32)[C@H](O)[C@@H]1O [Compound 12, 5′-[{(3′′S)-4′′-Benzylamino-3′′-amino-4′′-oxobutyl}dimethylamino]-5′-deoxyadenosine iodide ditrifluoroacetic acid salt]",EC50,[4],36 ± 6 nM
"CN(CCCC(=O)NCCNC(=O)CCCN(C)C[C@H]1O[C@@H](n2cnc3c(N)ncnc32)[C@H](O)[C@@H]1O)C[C@H]1O[C@@H](n2cnc3c(N)ncnc32)[C@H](O)[C@@H]1O [Compound 18a, N,N′-Di-[5′-deoxy-5′-N-methyl-N′-(4-butyryl)-adenosine]-1,2-ethylenediamine]",Fold-improvement over monovalent control 4,,1.4-fold
same,EC50,[2],700 ± 50 nM
"CN(CCCC(=O)NCCCCNC(=O)CCCN(C)C[C@H]1O[C@@H](n2cnc3c(N)ncnc32)[C@H](O)[C@@H]1O)C[C@H]1O[C@@H](n2cnc3c(N)ncnc32)[C@H](O)[C@@H]1O [Compound 18c, N,N′-Di-[5′-deoxy-5′-N-methyl-N′-(4-butyryl)-adenosine]-1,4-diaminobutane]",Fold-improvement over monovalent control 4,,4.5-fold
same,EC50,[2],220 ± 20 nM
"C[N+](C)(CCCC(=O)NCCCCCCNC(=O)CCC[N+](C)(C)C[C@H]1O[C@@H](n2cnc3c(N)ncnc32)[C@H](O)[C@@H]1O)C[C@H]1O[C@@H](n2cnc3c(N)ncnc32)[C@H](O)[C@@H]1O.[I-].[I-] [Compound 19d, N,N′-Dimethyl-N,N′-di-[5′-deoxy-5′-N-methyl-N′-(4-butyryl)-adenosine]-1,6-diaminohexane diiodide]",Fold-improvement over monovalent control 5,quaternised ligands 2 mM,2.9-fold
same,EC50,[3],51 ± 2 nM
"C[N+](C)(CC[C@H](N)C(=O)NCc1cccc(CNC(=O)[C@@H](N)CC[N+](C)(C)C[C@H]2O[C@@H](n3cnc4c(N)ncnc43)[C@H](O)[C@@H]2O)c1)C[C@H]1O[C@@H](n2cnc3c(N)ncnc32)[C@H](O)[C@@H]1O [Compound 10b, N,N′-(1,3-Phenylenebismethylene)bis{(2′S)-2′-amino-4′-[5′′-deoxy-5′′-(dimethylamino)-adenosyl]butanamide}iodide tetratrifluoroacetic acid salt]",EC50,[1],10 ± 1 nM
